# Data reported in patent publication US8404683B2, “Inhibitors of the interaction between MDM2 and P53” (Janssen Pharmaceutical N.V., priority 2004, dated 2013).
# Test system: U87MG cells
# Test: Proliferation assay (MTT-based) on U87MG tumour cells
# Conditions: Homo sapiens, U-87 MG, 96 h, 4 days of incubation, negative log value of the IC50-value, read-out: cell proliferation pIC50 (converted)
# Method: U87MG cells are human glioblastoma cells with wild type p53. In this cell line MDM2 tightly controls p53 expression.
# Cellular activity of the compounds of formula (I) was determined on U87MG tumour cells using a colorimetric assay for cell toxicity or survival (see example C.2).
# All compounds tested were dissolved in DMSO and further dilutions were made in culture medium. Final DMSO concentrations never exceeded 0.1% (v/v) in cell proliferation assays. Controls contained U87MG cells and DMSO without compound and blanks contained DMSO but no cells.
# U87MG cells were seeded in 96-well cell culture plates at 3000 cells/well/100 μl. 24 hours later, medium was changed and compound and/or solvent were added to a final volume of 200 μl. Following 4 days of incubation, medium was replaced by 200 μl fresh medium and cell growth was assessed using a MTT-based assay. Therefore, 25 μl of the MTT solution (0.5% MTT research grade from Serva in phosphate-buffered saline) was added to each well and the cells were further incubated for 2 hours at 37° C. The medium was then carefully aspirated and the blue MTT-formazan product was dissolved by adding to each well 25 μl 0.1 M glycin and 100 μl DMSO. The plates were shaken for another 10 min on a micro plate shaker before reading absorbance at 540 nm by a Biorad micro plate reader.
# Within an experiment, the results for each experimental condition are the mean of 3 replicate wells. For initial screening purposes, compounds were tested at a single fixed concentration of 10^−5 M. For active compounds, the experiments were repeated to establish full concentration-response curves. For each experiment, controls (containing no drug) and a blank incubation (containing no cells or drugs) were run in parallel. The blank value was subtracted from all control and sample values. For each sample, the mean value for cell growth (in absorbance units) was expressed as a percentage of the mean value for cell growth of the control. When appropriate, IC50-values (concentration of the drug, needed to reduce cell growth to 50% of the control) were computed using probit analysis for graded data (Finney, D. J., Probit Analyses, 2nd Ed. Chapter 10, Graded Responses, Cambridge University Press, Cambridge 1962). Herein the effects of test compounds are expressed as pIC50 (the negative log value of the IC50-value) (see table F-2).
row,IC50,Structure (SMILES)
1,3.16 µM,Cc1[nH]c2ccccc2c1CCNc1ccc(Nc2ccncc2)cc1 [Compound 77]
2,10 µM,c1cncc(Nc2ccc(NCc3c[nH]c4ccccc34)cc2)c1 [Compound 78]
3,2.51 µM,c1ccc2c(CNCc3ccc(Nc4ccncc4)cc3)c[nH]c2c1 [Compound 79]
4,> 10 µM,O=C(CCc1c[nH]c2ccccc12)Nc1cccc(Nc2ccncc2)c1 [Compound 82]
5,3.16 µM,CN(c1ccncc1)c1ccc(NCCc2c[nH]c3ccccc23)cc1 [Compound 83]
6,1.58 µM,c1cc(NCCCc2c[nH]c3ccccc23)cc(Nc2ccncc2)c1 [Compound 84]
7,0.158 µM,COc1cc(NCCc2c[nH]c3ccccc23)ccc1Nc1ccncc1 [Compound 85]
8,> 10 µM,N#Cc1cc(Nc2ccc(NCCc3c[nH]c4ccccc34)cc2)ccn1 [Compound 86]
9,3.16 µM,CC(NCCNC(=O)OCc1ccccc1)c1cc(Nc2ccc(NCCc3c[nH]c4ccccc34)cc2)ccn1 (stereo not shown) [Compound 88]
10,3.98 µM,CC(NCCN)c1cc(Nc2ccc(NCCc3c[nH]c4ccccc34)cc2)ccn1 (stereo not shown) [Compound 89]
11,2.51 µM,O=C(OCc1ccccc1)N1CCN(Cc2cc(Nc3ccc(NCCc4c[nH]c5ccccc45)cc3)ccn2)CC1 [Compound 90]
12,2.51 µM,c1ccc2c(CCNc3ccc(Nc4ccnc(CN5CCNCC5)c4)cc3)c[nH]c2c1 [Compound 91]
13,3.16 µM,O=C(NCCNCc1cc(Nc2ccc(NCCc3c[nH]c4ccccc34)cc2)ccn1)OCc1ccccc1 [Compound 92]
14,> 10 µM,NCCNCc1cc(Nc2ccc(NCCc3c[nH]c4ccccc34)cc2)ccn1 [Compound 93]
15,7.94 µM,c1ccc2c(CCNc3ccc(Nc4ccnc(CNCCN5CCNCC5)c4)cc3)c[nH]c2c1 [Compound 95]
16,> 10 µM,COC(=O)CCNCc1cc(Nc2ccc(NCCc3c[nH]c4ccccc34)cc2)ccn1 [Compound 96]
17,> 10 µM,O=C(O)CCNCc1cc(Nc2ccc(NCCc3c[nH]c4ccccc34)cc2)ccn1 [Compound 97]
18,3.98 µM,COC(=O)COCc1cc(Nc2ccc(NCCc3c[nH]c4ccccc34)cc2)ccn1 [Compound 98]
19,2.51 µM,OCCOCc1cc(Nc2ccc(NCCc3c[nH]c4ccccc34)cc2)ccn1 [Compound 99]
20,3.98 µM,CC(NCCCCO)c1cc(Nc2ccc(NCCc3c[nH]c4ccccc34)cc2)ccn1 (stereo not shown) [Compound 100]
21,2.51 µM,c1ccc(CC(CNc2ccc(Nc3ccncc3)cc2)c2c[nH]c3ccccc23)cc1 (stereo not shown) [Compound 101]
22,> 10 µM,CC(C)(C)OC(=O)N(CCc1cn(C(=O)OC(C)(C)C)c2ccccc12)c1ccc(Nc2ccnc(Cl)c2)cc1 [Compound 102]
23,3.98 µM,Clc1cc(Nc2ccc(NCCc3c[nH]c4ccccc34)cc2)ccn1 [Compound 103]
24,3.16 µM,CC(O)c1cc(Nc2ccc(NCCc3c[nH]c4ccccc34)cc2)ccn1 (stereo not shown) [Compound 104]
25,7.94 µM,CC(=O)c1cc(Nc2ccc(NCCc3c[nH]c4ccccc34)cc2)ccn1 [Compound 105]

row,IC50,Structure (SMILES)
1,1.58 µM,Cc1noc(-c2cc(Nc3ccc(NCCc4c[nH]c5ccccc45)cc3)ccn2)n1 [Compound 106]
2,> 10 µM,COC(=O)c1cc(Nc2ccc(NCCc3c[nH]c4ccccc34)cc2)cc(C(=O)OC)n1 [Compound 109]
3,0.01 µM,OC1CCc2c(Nc3ccc(NCCc4c[nH]c5ccccc45)cc3)ccnc21 (stereo not shown) [Compound 110]
4,> 10 µM,O=C(C(Cc1c[nH]c2ccccc12)Nc1ccc(Nc2ccncc2)cc1)N1CCN(CCO)CC1 (stereo not shown) [Compound 114]
5,> 10 µM,O=C(C(Cc1c[nH]c2ccccc12)Nc1ccc(Nc2ccncc2)cc1)N1CCN(CCOCCO)CC1 (stereo not shown) [Compound 116]
6,> 10 µM,O=C(NCCCCCO)C(Cc1c[nH]c2ccccc12)Nc1ccc(Nc2ccncc2)cc1 (stereo not shown) [Compound 118]
7,> 10 µM,c1ccc2c(CCNc3ccc(Nc4ccnnc4)cc3)c[nH]c2c1 [Compound 119]
8,5.01 µM,c1ccc2c(CNc3ccc(NCCc4c[nH]c5ccccc45)cc3)ccnc2c1 [Compound 120]
9,> 10 µM,c1cncc(CNc2ccc(NCCc3c[nH]c4ccccc34)cc2)c1 [Compound 121]
10,5.01 µM,OCc1cnccc1Nc1ccc(NCCc2c[nH]c3ccccc23)cc1 [Compound 123]
11,5.01 µM,COC(=O)c1cnccc1Nc1ccc(NCCc2c[nH]c3ccccc23)cc1 [Compound 124]
12,3.98 µM,Cc1cnccc1Cc1cnccc1Nc1ccc(NCCc2c[nH]c3ccccc23)cc1 [Compound 125]
13,> 10 µM,CCOC(=O)/C=C/c1cnccc1Nc1ccc(NCCc2c[nH]c3ccccc23)cc1 [Compound 126]
14,7.94 µM,CCC(O)c1cnccc1Nc1ccc(NCCc2c[nH]c3ccccc23)cc1 (stereo not shown) [Compound 127]
15,3.16 µM,CCC(O)(CC)c1cc(Nc2ccc(NCCc3c[nH]c4ccccc34)cc2)ccn1 [Compound 128]
16,2 µM,CS(=O)(=O)NCc1cc(Nc2ccc(NCCc3c[nH]c4ccccc34)cc2)ccn1 [Compound 129]
17,1.58 µM,O=C(NCc1cc(Nc2ccc(NCCc3c[nH]c4ccccc34)cc2)ccn1)C1CC1 [Compound 130]
18,2.51 µM,O=C(CCc1ccccc1)NCc1cc(Nc2ccc(NCCc3c[nH]c4ccccc34)cc2)ccn1 [Compound 131]
19,> 10 µM,CCC(=O)NCc1cc(Nc2ccc(NCCc3c[nH]c4ccccc34)cc2)ccn1 [Compound 132]
20,1.26 µM,CCOCc1cc(Nc2ccc(NCCc3c[nH]c4ccccc34)cc2)ccn1 [Compound 134]
21,1 µM,OCc1cc(Nc2ccc(NCCc3c[nH]c4ccccc34)cc2)cc(CO)n1 [Compound 135]
22,2 µM,OC(c1cc(Nc2ccc(NCCc3c[nH]c4ccccc34)cc2)ccn1)C1CC1 (stereo not shown) [Compound 136]
23,3.16 µM,CC(C)C(O)c1cc(Nc2ccc(NCCc3c[nH]c4ccccc34)cc2)ccn1 (stereo not shown) [Compound 137]
24,1.58 µM,CC(C)(C)C(O)c1cc(Nc2ccc(NCCc3c[nH]c4ccccc34)cc2)ccn1 (stereo not shown) [Compound 138]
25,2 µM,CCOc1cc(Nc2ccnc(C(C)(C)O)c2)ccc1NCCc1c[nH]c2cc(OC)ccc12 [Compound 139]

row,IC50,Structure (SMILES)
1,2.51 µM,CC(NCc1ccccc1)c1cc(Nc2ccc(NCCc3c[nH]c4ccccc34)cc2)ccn1 (stereo not shown) [Compound 140]
2,3.98 µM,CC(N)c1cc(Nc2ccc(NCCc3c[nH]c4ccccc34)cc2)ccn1 (stereo not shown) [Compound 141]
3,3.16 µM,CNC(C)c1cc(Nc2ccc(NCCc3c[nH]c4ccccc34)cc2)ccn1 (stereo not shown) [Compound 142]
4,3.16 µM,CCNC(C)c1cc(Nc2ccc(NCCc3c[nH]c4ccccc34)cc2)ccn1 (stereo not shown) [Compound 143]
5,3.16 µM,CC(NCCN1CCOCC1)c1cc(Nc2ccc(NCCc3c[nH]c4ccccc34)cc2)ccn1 (stereo not shown) [Compound 144]
6,2.51 µM,CC(NCCc1ccccc1)c1cc(Nc2ccc(NCCc3c[nH]c4ccccc34)cc2)ccn1 (stereo not shown) [Compound 145]
7,7.94 µM,COC(=O)CCNC(C)c1cc(Nc2ccc(NCCc3c[nH]c4ccccc34)cc2)ccn1 (stereo not shown) [Compound 146]
8,5.01 µM,CC(NCCO)c1cc(Nc2ccc(NCCc3c[nH]c4ccccc34)cc2)ccn1 (stereo not shown) [Compound 147]
9,3.16 µM,CC(NCCCc1ccccc1)c1cc(Nc2ccc(NCCc3c[nH]c4ccccc34)cc2)ccn1 (stereo not shown) [Compound 148]
10,2 µM,CCOC(C)c1cc(Nc2ccc(NCCc3c[nH]c4ccccc34)cc2)ccn1 (stereo not shown) [Compound 149]
11,3.16 µM,COC(C)c1cc(Nc2ccc(NCCc3c[nH]c4ccccc34)cc2)ccn1 (stereo not shown) [Compound 150]
12,> 10 µM,CC(=O)OCc1cc(Nc2ccc(NCCc3c[nH]c4ccccc34)cc2)ccn1 [Compound 151]
13,10 µM,OCCNCc1cc(Nc2ccc(NCCc3c[nH]c4ccccc34)cc2)ccn1 [Compound 152]
14,2.51 µM,c1ccc2c(CCNc3ccc(Nc4ccnc(CNCCN5CCOCC5)c4)cc3)c[nH]c2c1 [Compound 153]
15,3.16 µM,CNCc1cc(Nc2ccc(NCCc3c[nH]c4ccccc34)cc2)ccn1 [Compound 154]
16,2 µM,CCNCc1cc(Nc2ccc(NCCc3c[nH]c4ccccc34)cc2)ccn1 [Compound 155]
17,3.16 µM,OCCCNCc1cc(Nc2ccc(NCCc3c[nH]c4ccccc34)cc2)ccn1 [Compound 156]
18,1.58 µM,N#CCNCc1cc(Nc2ccc(NCCc3c[nH]c4ccccc34)cc2)ccn1 [Compound 157]
19,> 10 µM,CN(C)Cc1cc(Nc2ccc(NCCc3c[nH]c4ccccc34)cc2)ccn1 [Compound 158]
20,3.16 µM,c1ccc2c(CCNc3ccc(Nc4ccnc(CN5CCOCC5)c4)cc3)c[nH]c2c1 [Compound 159]
21,0.398 µM,CN1CCN(Cc2cc(Nc3ccc(NCCc4c[nH]c5ccccc45)cc3)ccn2)CC1 [Compound 160]
22,1 µM,CCN(CC)Cc1cc(Nc2ccc(NCCc3c[nH]c4ccccc34)cc2)ccn1 [Compound 161]
23,3.16 µM,N#CCCNCc1cc(Nc2ccc(NCCc3c[nH]c4ccccc34)cc2)ccn1 [Compound 162]
